Experimental data reported in PubChem BioAssay AID330 (DTP/NCI, 2004).
Where “and” joins values, the source holds several entries; their conditions need not be identical. Equal entries are not always repeated. Toxic doses and inconclusive results are not listed.

Tested on: P388 leukemia ip, CD2F1 mice, survival T/C
Test: NCI In Vivo Anticancer Drug Screen. Data for tumor model P388 Leukemia (intraperitoneal) in CD2F1 (CDF1) mice
Conditions: endpoint: median survival time, higher = longer survival
Method in brief: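 Mice carrying the transplanted tumor received test compound or vehicle. Survival was recorded in each group, and the value is the treated-group measurement divided by that of the vehicle-treated control group.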

[1] = dose: 50.0 mg/kg/injection, schedule: Q01DX009 (ip), vehicle: saline
[2] = dose: 100.0 mg/kg/injection, schedule: Q01DX009 (ip), vehicle: saline
[3] = dose: 200.0 mg/kg/injection, schedule: Q01DX009 (ip), vehicle: saline
[4] = dose: 50.0 mg/kg/injection, schedule: Q01DX005 (ip), vehicle: Klucel (hydroxypropylcellulose) (HPC)
[5] = dose: 100.0 mg/kg/injection, schedule: Q01DX005 (ip), vehicle: Klucel (hydroxypropylcellulose) (HPC)
[6] = dose: 50.0 mg/kg/injection, schedule: Q01DX005 (ip), vehicle: saline with Tween-80
[7] = dose: 100.0 mg/kg/injection, schedule: Q01DX005 (ip), vehicle: saline with Tween-80
[8] = dose: 200.0 mg/kg/injection, schedule: Q01DX005 (ip), vehicle: saline with Tween-80
[9] = dose: 12.5 mg/kg/injection, schedule: Q01DX009 (ip), vehicle: saline with Tween-80
[10] = dose: 25.0 mg/kg/injection, schedule: Q01DX009 (ip), vehicle: saline with Tween-80
[11] = dose: 50.0 mg/kg/injection, schedule: Q01DX009 (ip), vehicle: saline with Tween-80
[12] = dose: 200.0 mg/kg/injection, schedule: Q01DX009 (ip), vehicle: saline with Tween-80
[13] = dose: 100.0 mg/kg/injection, schedule: Q01DX009 (ip), vehicle: saline with Tween-80

SMILES: O=C1CCC2=C3C4CCCC5OC6CC(=O)CCC6=C(C6CCCC(OC2C1)C36)C54 (stereo not drawn)
- T/C [1]: 96 % of control
- T/C [2]: 100 % of control
- T/C [3]: 96 % of control
- T/C (dose: 400.0 mg/kg/injection, schedule: Q01DX009 (ip), vehicle: saline): 100 % of control

SMILES: CC(=O)OC1COC(n2cnc3c(Cl)nc(Cl)nc32)C(OC(C)=O)C1OC(C)=O (stereo not drawn)
- T/C [4]: 107 % of control
- T/C [5]: 108 % of control

SMILES: COc1ccc2c(c1)CN(CCc1ccc([N+](=O)[O-])cc1)CO2
- T/C [6]: 96 % of control
- T/C [7]: 94 % of control
- T/C [8]: 96 % of control

SMILES: CCCCN(CC(O)c1cc2c(c3ccccc13)CCCC2)c1ccc(OC)cc1 (stereo not drawn)
- T/C [6]: 115 % of control
- T/C [7]: 101 % of control
- T/C [8]: 101 % of control

SMILES: CCCCN(CC)CC(CC)Nc1cc(OC)cc2cccnc12 (stereo not drawn)
- T/C [6]: 102 % of control
- T/C [7]: 95 % of control
- T/C [8]: 101 % of control

SMILES: CC(=O)Oc1ccc(OC(C)=O)c2c1CC=CC2
- T/C [4]: 105 % of control
- T/C [5]: 105 % of control
- T/C (dose: 200.0 mg/kg/injection, schedule: Q01DX005 (ip), vehicle: Klucel (hydroxypropylcellulose) (HPC)): 100 % of control

SMILES: CSC(=S)NS(=O)(=O)c1cccs1
- T/C (dose: 50.0 mg/kg/injection, schedule: Q01DX009 (ip), vehicle: Klucel (hydroxypropylcellulose) (HPC)): 98 % of control
- T/C (dose: 100.0 mg/kg/injection, schedule: Q01DX009 (ip), vehicle: Klucel (hydroxypropylcellulose) (HPC)): 91 % of control

SMILES: CC(=N\[O-])/C(C)=N/O.CC(=N\[O-])/C(C)=N/O.CC(=O)[O-].CC(=O)[O-].O.[Rh+2].[Rh+2]
- T/C (dose: 6.25 mg/kg/injection, schedule: Q01DX009 (ip), vehicle: saline with Tween-80): 123 % of control
- T/C [9]: 119 % of control

SMILES: CCOC(=O)/C(C)=C1\N=C(c2ccccc2)OC(=NC2CCCCC2)N1C1CCCCC1
- T/C [6]: 96 % of control
- T/C [7]: 91 % of control
- T/C [8]: 94 % of control

SMILES: COc1ccc(-c2cc(C(=O)Nc3cc(Cl)cc(Cl)c3)c3ccccc3n2)cc1
- T/C [6]: 91 % of control
- T/C [7]: 93 % of control
- T/C [8]: 91 % of control

SMILES: COc1ccc(CSC(=S)Nc2ccc(C)c(Cl)c2)cc1
- T/C (dose: 50.0 mg/kg/injection, schedule: Q01DX009 (ip), vehicle: suspension in saline): 106 % of control
- T/C (dose: 100.0 mg/kg/injection, schedule: Q01DX009 (ip), vehicle: suspension in saline): 102 % of control
- T/C (dose: 200.0 mg/kg/injection, schedule: Q01DX009 (ip), vehicle: suspension in saline): 111 % of control

SMILES: Cc1ccc(S(=O)(=O)NC(=O)NC(C)Cc2ccccc2)cc1 (stereo not drawn)
- T/C [9]: 102 % of control
- T/C [10]: 100 % of control
- T/C [11]: 101 % of control and 105 % of control
- T/C [12]: 98 % of control

SMILES: Cn1c2nc(-[n+]3ccccc3)nc-2c([O-])n(C)c1=O
- T/C (dose: 100.0 mg/kg/injection, schedule: Q04DX003 (ip), vehicle: saline): 94 % of control
- T/C (dose: 200.0 mg/kg/injection, schedule: Q04DX003 (ip), vehicle: saline): 100 % of control
- T/C (dose: 400.0 mg/kg/injection, schedule: Q04DX003 (ip), vehicle: saline): 100 % of control

SMILES: C[C@@H]1C[C@@H]([C@H](O)CC2CC(=O)NC(=O)C2)C(=O)[C@@H](C)C1
- T/C (dose: 3.89 mg/kg/injection, schedule: Q01DX009 (ip), vehicle: Klucel (hydroxypropylcellulose) (HPC)): 99 % of control and 108 % of control
- T/C (dose: 6.48 mg/kg/injection, schedule: Q01DX009 (ip), vehicle: Klucel (hydroxypropylcellulose) (HPC)): 102 % of control and 104 % of control
- T/C (dose: 10.8 mg/kg/injection, schedule: Q01DX009 (ip), vehicle: Klucel (hydroxypropylcellulose) (HPC)): 104 % of control and 117 % of control
- T/C (dose: 12.5 mg/kg/injection, schedule: Q01DX009 (ip), vehicle: water): 108 % of control and 115 % of control
- T/C (dose: 18.0 mg/kg/injection, schedule: Q01DX009 (ip), vehicle: Klucel (hydroxypropylcellulose) (HPC)): 106 % of control and 94 % of control
- T/C (dose: 20.0 mg/kg/injection, schedule: Q01DX009 (ip), vehicle: water): 92 % of control
- T/C (dose: 23.3 mg/kg/injection, schedule: Q04DX003 (ip), vehicle: Klucel (hydroxypropylcellulose) (HPC)): 102 % of control and 104 % of control
- T/C (dose: 25.0 mg/kg/injection, schedule: Q01DX009 (ip), vehicle: water): 117 % of control
- T/C (dose: 30.0 mg/kg/injection, schedule: Q01DX009 (ip), vehicle: Klucel (hydroxypropylcellulose) (HPC)): 113 % of control and 117 % of control
- T/C (dose: 30.0 mg/kg/injection, schedule: Q01DX009 (ip), vehicle: water): 95 % of control
- T/C (dose: 38.9 mg/kg/injection, schedule: Q04DX003 (ip), vehicle: Klucel (hydroxypropylcellulose) (HPC)): 111 % of control and 97 % of control
- T/C (dose: 40.0 mg/kg/injection, schedule: Q01DX009 (ip), vehicle: water): 100 % of control
- T/C (dose: 50.0 mg/kg/injection, schedule: Q01DX009 (ip), vehicle: water): 99 % of control
- T/C (dose: 64.8 mg/kg/injection, schedule: Q04DX003 (ip), vehicle: Klucel (hydroxypropylcellulose) (HPC)): 104 % of control and 95 % of control
- T/C (dose: 80.0 mg/kg/injection, schedule: Q01DX009 (ip), vehicle: water): 109 % of control
- T/C (dose: 100.0 mg/kg/injection, schedule: Q01DX001 (ip), vehicle: saline): 110 % of control
- T/C (dose: 108.0 mg/kg/injection, schedule: Q04DX003 (ip), vehicle: Klucel (hydroxypropylcellulose) (HPC)): 109 % of control
- T/C (dose: 120.0 mg/kg/injection, schedule: Q01DX009 (ip), vehicle: water): 92 % of control
- T/C (dose: 125.0 mg/kg/injection, schedule: Q01DX001 (ip), vehicle: saline): 113 % of control
- T/C (dose: 150.0 mg/kg/injection, schedule: Q01DX001 (ip), vehicle: saline): 112 % of control
- T/C (dose: 175.0 mg/kg/injection, schedule: Q01DX001 (ip), vehicle: saline): 112 % of control
- T/C (dose: 180.0 mg/kg/injection, schedule: Q04DX003 (ip), vehicle: Klucel (hydroxypropylcellulose) (HPC)): 97 % of control
- T/C (dose: 200.0 mg/kg/injection, schedule: Q01DX001 (ip), vehicle: saline): 112 % of control

SMILES: CCOC(=O)/C(NC(=O)c1ccccc1)=C(\NC(=O)c1ccccc1)C(=O)OCC
- T/C (dose: 60.0 mg/kg/injection, schedule: Q01DX005 (ip), vehicle: saline): 104 % of control
- T/C (dose: 120.0 mg/kg/injection, schedule: Q01DX005 (ip), vehicle: saline): 96 % of control
- T/C (dose: 240.0 mg/kg/injection, schedule: Q01DX005 (ip), vehicle: saline): 96 % of control

SMILES: [CH3][Sn]([CH3])([O]c1cccccc1=O)[O]c1cccccc1=O
- T/C (dose: 25.0 mg/kg/injection, schedule: Q01DX001 (ip), vehicle: Klucel (hydroxypropylcellulose) (HPC)): 99 % of control
- T/C (dose: 50.0 mg/kg/injection, schedule: Q01DX001 (ip), vehicle: Klucel (hydroxypropylcellulose) (HPC)): 99 % of control
- T/C (dose: 100.0 mg/kg/injection, schedule: Q01DX001 (ip), vehicle: Klucel (hydroxypropylcellulose) (HPC)): 100 % of control

SMILES: CCc1cccc(CC)c1N1C(=O)CSCC1=O
- T/C [1]: 99 % of control
- T/C [2]: 93 % of control
- T/C [3]: 100 % of control

SMILES: COc1ccc(C(C)c2cc3c(cc2OCC(C)=O)OCO3)cc1 (stereo not drawn)
- T/C (dose: 60.0 mg/kg/injection, schedule: Q01DX005 (ip), vehicle: saline with Tween-80): 97 % of control
- T/C (dose: 120.0 mg/kg/injection, schedule: Q01DX005 (ip), vehicle: saline with Tween-80): 94 % of control
- T/C (dose: 240.0 mg/kg/injection, schedule: Q01DX005 (ip), vehicle: saline with Tween-80): 94 % of control

SMILES: CC1=NCCN=C(C)C1[N+](=O)[O-]
- T/C [1]: 91 % of control
- T/C [2]: 87 % of control

SMILES: NC(=S)n1nc(-c2ccccc2)c(N=Nc2ccc(O)cc2)c1-c1ccccc1
- T/C [6]: 100 % of control
- T/C [7]: 103 % of control
- T/C [8]: 98 % of control

SMILES: COc1cc(Cl)nc(OC)n1
- T/C [10]: 108 % of control
- T/C [11]: 89 % of control
- T/C [13]: 103 % of control
- T/C [12]: 103 % of control

SMILES: ClCC(CCl)(CCl)CCl
- T/C (dose: 50.0 mg/kg/injection, schedule: Q04DX003 (ip), vehicle: saline with Tween-80): 105 % of control
- T/C (dose: 100.0 mg/kg/injection, schedule: Q04DX003 (ip), vehicle: saline with Tween-80): 98 % of control

SMILES: CC1CN=C(c2ccc(NC(=O)c3cccc(C(=O)Nc4ccc(C5=NCC(C)N5)cc4)c3)cc2)N1 (stereo not drawn)
- T/C (dose: 12.0 mg/kg/injection, schedule: Q01DX010 (ip), vehicle: saline): 118 % of control
- T/C (dose: 18.0 mg/kg/injection, schedule: Q01DX010 (ip), vehicle: saline): 154 % of control
- T/C (dose: 27.0 mg/kg/injection, schedule: Q01DX010 (ip), vehicle: saline): 159 % of control
- T/C (dose: 40.0 mg/kg/injection, schedule: Q01DX010 (ip), vehicle: saline): 172 % of control

SMILES: O=C(CNC(=O)NCc1ccco1)N/N=C/c1ccccc1O
- T/C [11]: 89 % of control
- T/C [13]: 96 % of control

SMILES: CC(C)(C)N=C(CCN1CCN(c2ccccc2)CC1)Nc1ccccc1Cl
- T/C [11]: 109 % of control
- T/C [13]: 108 % of control
- T/C [12]: 100 % of control
